Measured values from patent US20250082598A1, “Melafenoxate, 2-(1-adamantylamino)ethyl 2-(4-chlorophenoxy)acetate and derivatives thereof for treating circadian rhythm sleep disorders with neurodegenerative diseases such as Alzheimer's disease” (NLS Pharmaceutics AG, priority 2021, published 2025).

Columns and labels:
[1] = biological target: T1, MT1 (MLT1a) (h) (Homo sapiens, UniProt P48039); test: Radioligand binding, MT1 (MLT1a) (h); conditions: 10^−5 M; agonist radioligand; % inhibition of control specific binding
T1 construct: CEREP (Eurofins, France)
Experimental: Melafenoxate was tested at 10^−5 M, calculated as a % inhibition of control specific binding of a radioactively labeled ligand specific for each target.
This binding profile panel was broadly defined with roughly an equal number of selective, central and peripheral therapeutically relevant targets, including native animal tissues, radioligands and specific enzymes involved in cell cycle regulation in accordance with Eurofins Standard Operating Procedure.
For radioligand binding experiments, the half maximal inhibitory concentration (IC50) and the half maximal effective concentration (EC50) values were determined (via computer software) by nonlinear regression analysis of the competition curves using Hill equation curve fitting. The inhibition constants (Ki) were calculated using the Cheng-Prusoff equation (Ki=IC50/(1+(L/KD)), where L is the concentration of radioligand in the assay, and KD is the affinity of the radioligand for the receptor.^49
The results are expressed as a % control specific binding ([measured specific binding/control specific binding]×100) and as a % inhibition of control specific binding (100−[(measured specific binding/control specific binding)×100]) obtained in the presence of the test compounds. […]

[2] = biological target: RXFP4 (h) (Homo sapiens, UniProt Q8TDU9); test: RXFP4 assay (Eurofins/LeadHunter, cAMP Hunter GPCR Biosensor); type: cell-based
Experimental: Melafenoxate is found to weakly bind with RXFP3 and RXFP4 receptors (Study FR095-0024749-Q Eurofins/leadHunter Jun. 25, 2021; unpublished data).
In these assays' compounds were tested in agonist and antagonist mode with the GPCR Biosensor Assays and match to this design:
• 1. CAMP Hunter cell lines were expanded from freezer stocks according to standard procedures. • 2. Cells were seeded in a total volume of 20 μL into white walled, 384-well microplates and incubated at 37° C. for the appropriate time prior to testing. • 3. cAMP modulation was determined using the DiscoverX HitHunter CAMP XS+assay.
• 1. For agonist determination, cells were incubated with sample to induce response. • 2. Media was aspirated from cells and replaced with 15 μL 2:1 HBSS/10 mM Hepes: CAMP XS+ Ab reagent. • 3. […]
• 1. […] Microplates were read following signal generation with a PerkinElmer Envision™ instrument for chemiluminescent signal detection.
• 1. Compound activity was analyzed using CBIS data analysis suite (ChemInnovation, CA). • 2. For Gs agonist mode assays, percentage activity is calculated using the following formula:
% Activity=100%×(mean RLU of test sample−mean RLU of vehicle control)/(mean RLU of MAX control−mean RLU of vehicle control). • 3. For Gs positive allosteric mode assays, percentage modulation is calculated using the following formula: http://www.eurofinsdiscoveryservices.com Confidential Jun. […]

RXFP4 (h), sequence (Q8TDU9 whole entry): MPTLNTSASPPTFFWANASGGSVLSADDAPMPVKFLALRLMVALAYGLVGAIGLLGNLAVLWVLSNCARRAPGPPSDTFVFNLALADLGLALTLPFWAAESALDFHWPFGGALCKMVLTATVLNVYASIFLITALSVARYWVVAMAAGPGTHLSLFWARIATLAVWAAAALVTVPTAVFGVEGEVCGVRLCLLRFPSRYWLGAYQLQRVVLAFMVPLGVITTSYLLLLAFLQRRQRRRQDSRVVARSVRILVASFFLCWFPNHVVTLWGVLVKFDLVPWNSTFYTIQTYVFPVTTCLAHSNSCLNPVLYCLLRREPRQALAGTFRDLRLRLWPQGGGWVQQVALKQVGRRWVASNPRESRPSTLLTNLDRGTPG
T1 sequence (P48039 whole entry): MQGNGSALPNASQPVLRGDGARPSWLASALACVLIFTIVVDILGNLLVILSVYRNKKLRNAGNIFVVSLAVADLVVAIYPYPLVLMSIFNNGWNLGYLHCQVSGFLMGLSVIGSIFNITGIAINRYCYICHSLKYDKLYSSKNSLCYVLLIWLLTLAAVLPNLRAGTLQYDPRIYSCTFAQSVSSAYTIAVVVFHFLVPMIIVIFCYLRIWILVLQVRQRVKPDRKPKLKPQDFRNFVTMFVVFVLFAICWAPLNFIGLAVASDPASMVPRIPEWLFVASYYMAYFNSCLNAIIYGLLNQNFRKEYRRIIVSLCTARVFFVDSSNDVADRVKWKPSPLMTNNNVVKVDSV

- inhibition at 10 µM [1]: 75.2%
- binding with RXFP4 receptor (in words) [2]: weakly bind
- % Inhibition at 5*10^−5 M ([2]; 5*10^−5 M): 19.5%
SMILES: O=C(COc1ccc(Cl)cc1)OCCNC12CC3CC(CC(C3)C1)C2 [Melafenoxate, 2-(1-adamantylamino)ethyl 2-(4-chlorophenoxy)acetate]
